In patent publication US6147100A, “Pyrrolidine derivatives having phospholipase A2 inhibitory activity” (Shionogi & Co., Ltd., priority 1997, dated 2000):
pIC50: −log10 of the molar value.

Biological target: T1, cPLA2 (Homo sapiens, UniProt P47712)
T1 sequence (P47712 1-749): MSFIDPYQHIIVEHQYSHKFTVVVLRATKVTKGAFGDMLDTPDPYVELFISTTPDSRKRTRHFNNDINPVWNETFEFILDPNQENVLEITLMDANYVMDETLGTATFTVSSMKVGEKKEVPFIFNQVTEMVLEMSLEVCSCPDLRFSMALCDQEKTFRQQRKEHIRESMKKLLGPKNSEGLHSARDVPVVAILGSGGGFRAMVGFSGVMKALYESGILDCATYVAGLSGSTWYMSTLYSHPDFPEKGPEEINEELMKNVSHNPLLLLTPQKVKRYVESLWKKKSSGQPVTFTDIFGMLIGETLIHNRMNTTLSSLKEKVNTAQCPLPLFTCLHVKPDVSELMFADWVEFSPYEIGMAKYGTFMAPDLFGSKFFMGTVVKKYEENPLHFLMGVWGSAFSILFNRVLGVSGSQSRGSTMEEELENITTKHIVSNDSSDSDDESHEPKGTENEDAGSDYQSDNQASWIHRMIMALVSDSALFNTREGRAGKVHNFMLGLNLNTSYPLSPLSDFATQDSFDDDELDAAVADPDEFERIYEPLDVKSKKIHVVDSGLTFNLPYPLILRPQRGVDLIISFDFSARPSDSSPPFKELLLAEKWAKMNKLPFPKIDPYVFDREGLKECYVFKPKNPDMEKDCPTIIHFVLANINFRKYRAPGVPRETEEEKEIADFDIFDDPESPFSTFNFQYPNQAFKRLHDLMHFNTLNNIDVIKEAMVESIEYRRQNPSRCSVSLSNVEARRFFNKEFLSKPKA
Experiment: cPLA2 Inhibitory Activity
Assay type: biochemical
Conditions: 1-palmitoyl-2-[14C]-arachidonoyl-sn-glycero-3-phosphocholine 2.5 μM, sn-1,2-dioleoylglycerol 1.25 μM; pH 7.5, 15 min at 37° C.
Experimental: Test Example 1 cPLA2 Inhibitory Activity The compounds of the present invention were tested for the cPLA2 inhibitory activity according to the method disclosed in […]. Roberts, […], and J. E. Putnam, J. Biol. Chem., 1991, 266, 5268-5272 as outlined below. […] The reaction mixture includes 50 mM HEPES buffer (pH 7.5), 1 mM calcium chloride, 150 mM sodium chloride, 0.1 mg/ml bovine serum albumin, and 1.7 mM dithiothreitol. To the reaction mixture was added the compound of the present invention and the substrate solution. The reaction was allowed to start by adding an enzyme and continued for 15 min at 37° C. The fatty acids released by the reaction were extracted by the method described in V. P. Dole, and H. Meinertz, J. Biol. Chem., 1960, 235, 2595-2599 and its radiation activity was measured on a liquid scintillation counter. Control was obtained by conducting the experiment in the same manner except that a compound of the present invention was not added.

| SMILES | pIC50 |
| --- | --- |
| CN(Cc1ccc(/C=C2\SC(=S)NC2=O)cc1)C[C@@H]1C[C@@H](OCc2ccccc2-c2ccccc2)CN1C(=O)c1ccccc1C(=O)c1ccc(F)cc1 [Compound G-2] | 5.27 |
| CC(C)Cc1cccc(-c2ccccc2)c1O[C@@H]1C[C@@H](CNC(=O)c2ccc(/C=C3\SC(=O)NC3=O)cc2)N(C(=O)c2ccccc2C(=O)c2ccc(F)cc2)C1 [Compound A-124] | 7.62 |
| CC(=O)Nc1ccccc1C(=O)c1ccccc1C(=O)N1C[C@H](OCc2ccccc2-c2ccccc2)C[C@H]1CNC(=O)c1ccc(/C=C2\SC(=O)NC2=O)cc1 [Compound A-24] | 5.24 |
| CN(Cc1ccccc1)[C@@H]1C[C@@H](CNC(=O)c2ccc(/C=C3\SC(=S)NC3=O)cc2)N(C(=O)c2ccccc2C(=O)c2ccc(F)cc2)C1 [Compound M-2] | 5.85 |
| O=C1NC(=S)S/C1=C\c1ccc(/C=C\C[C@@H]2C[C@@H](OCc3ccccc3-c3ccccc3)CN2C(=O)c2ccccc2C(=O)c2ccc(F)cc2)cc1 [Compound E-11] | 6.49 |
| C/C(=C/C(=O)c1ccccc1)C(=O)N1C[C@H](OCc2ccccc2-c2ccccc2)C[C@H]1CNC(=O)c1ccc(/C=C2\SC(=O)NC2=O)cc1 [Compound A-9] | 5.26 |
| CN(Cc1ccc(/C=C2\SC(=O)NC2=O)cc1)C[C@@H]1C[C@@H](OCc2ccccc2-c2ccccc2)CN1C(=O)c1ccccc1C(=O)c1ccc(F)cc1 [Compound G-3] | 5.48 |
| O=C1NC(=O)/C(=C/c2ccc(C(=O)NC[C@@H]3C[C@@H](OCc4ccccc4-c4ccccc4)CN3C(=O)c3ccccc3C(=O)c3ccc(F)cc3)o2)S1 [Compound A-64] | 5.66 |
| Nc1cccc(-c2ccccc2CO[C@@H]2C[C@@H](CNC(=O)c3ccc(/C=C4\SC(=O)NC4=O)cc3)N(C(=O)c3ccccc3C(=O)c3ccc(F)cc3)C2)c1 [Compound A-46] | 6.82 |
| CN(C(=O)C[C@@H]1C[C@@H](OCc2ccccc2-c2ccccc2)CN1C(=O)c1ccccc1C(=O)c1ccc(F)cc1)c1ccc(/C=C2\SC(=O)NC2=O)cc1 [Compound G-13] | 5.25 |
| O=C1NC(=O)C(=CC2CCN(C(=O)[C@@H]3C[C@@H](OCc4ccccc4-c4ccccc4)CN3C(=O)c3ccccc3C(=O)c3ccc(F)cc3)CC2)S1 [Compound B-9] | 4.85 |
| O=C1NC(=O)/C(=C/c2ccc(C(=O)NCCC[C@@H]3C[C@@H](OCc4ccccc4-c4ccccc4)CN3C(=O)c3ccccc3C(=O)c3ccc(F)cc3)cc2)S1 [Compound F-1] | 4.82 |
| CC(C)N(Cc1ccccc1)[C@@H]1C[C@@H](CNC(=O)c2ccc(/C=C3\SC(=S)NC3=O)cc2)N(C(=O)c2ccccc2C(=O)c2ccc(F)cc2)C1 [Compound M-4] | 6.85 |
| O=C1NC(=O)/C(=C/c2ccc(C(=O)NC[C@@H]3C[C@@H](OCc4ccccc4-c4ccccc4)CN3C(=O)c3ccccc3C(=O)c3ccc(F)cc3)cc2)O1 [Compound A-54] | 6.85 |
| O=C1NC(=S)S/C1=C\c1ccc(/C=C/[C@@H]2C[C@@H](OCc3ccccc3-c3ccccc3)CN2C(=O)c2ccccc2C(=O)c2ccc(F)cc2)s1 [Compound E-7] | 5.80 |
| CCN(Cc1ccccc1-c1ccccc1)[C@@H]1C[C@@H](C(=O)Nc2ccc(/C=C3\SC(=S)NC3=O)cc2)N(C(=O)c2ccccc2C(=O)c2ccc(F)cc2)C1 [Compound N-5] | 6.62 |
| CN(C(=O)[C@@H]1C[C@@H](OCc2ccccc2-c2ccccc2)CN1C(=O)c1ccccc1C(=O)c1ccc(F)cc1F)c1ccc(/C=C2\SC(=S)NC2=O)cc1 [Compound G-12] | 5.55 |
| CC(C)Oc1ccccc1-c1ccccc1O[C@@H]1C[C@@H](CNC(=O)c2ccc(/C=C3\SC(=O)NC3=O)cc2)N(C(=O)c2ccccc2C(=O)c2ccc(F)cc2)C1 [Compound A-121] | 7.19 |
| CC(=O)N(Cc1ccc(/C=C2\SC(=S)NC2=O)cc1)C[C@@H]1C[C@@H](OCc2ccccc2-c2ccccc2)CN1C(=O)c1ccccc1C(=O)c1ccc(F)cc1 [Compound G-5] | 5.80 |
| O=C1NC(=O)/C(=C/c2ccc(C(=O)NC[C@@H]3C[C@@H](OCc4ccccc4-c4ccccc4)CN3C(=O)CCC(=O)c3ccccc3)cc2)S1 [Compound A-7] | 5.30 |
| Cc1c(CO[C@@H]2C[C@@H](CNC(=O)c3ccc(/C=C4\SC(=O)NC4=O)cc3)N(C(=O)c3ccccc3C(=O)c3ccc(F)cc3)C2)cccc1-c1ccccc1 [Compound A-31] | 6.70 |

| SMILES | pIC50 |
| --- | --- |
| CC(C)CN(CC(C)C)[C@@H]1C[C@@H](CNC(=O)c2ccc(/C=C3\SC(=O)NC3=O)cc2)N(C(=O)c2ccccc2C(=O)c2ccc(F)cc2)C1 [Compound M-15] | 6.82 |
| CN(Cc1ccccc1)[C@@H]1C[C@@H](CNC(=O)c2ccc(/C=C3\SC(=O)NC3=O)cc2)N(C(=O)c2ccccc2C(=O)c2ccc(F)cc2)C1 [Compound M-1] | 5.82 |
| O=C1NC(=O)/C(=C/c2ccc(C(=O)NC[C@@H]3C[C@@H](Oc4ccccc4-c4cccnc4)CN3C(=O)c3ccccc3C(=O)c3ccc(F)cc3)cc2)S1 [Compound A-105] | 6.82 |
| O=C1NC(=S)S/C1=C\c1ccc(CN(C[C@@H]2C[C@@H](OCc3ccccc3-c3ccccc3)CN2C(=O)c2ccccc2C(=O)c2ccc(F)cc2)C(=O)c2ccccc2)cc1 [Compound G-8] | 5.96 |
| O=C1NC(=O)/C(=C/c2ccc(C(=O)NC[C@@H]3C[C@@H](NC(=O)c4ccccc4-c4ccccc4)CN3C(=O)c3ccccc3C(=O)c3ccc(F)cc3)cc2)S1 [Compound M-16] | 5.70 |
| CC(C)c1cccc(-c2cccc3ccccc23)c1O[C@@H]1C[C@@H](CNC(=O)c2ccc(/C=C3\SC(=O)NC3=O)cc2)N(C(=O)c2ccccc2C(=O)c2ccc(F)cc2)C1 [Compound A-114] | 7.70 |
| O=C1NC(=O)/C(=C/c2ccc(C(=O)NC[C@@H]3C[C@@H](Oc4cccc(-c5cccc(O)c5)c4)CN3C(=O)c3ccccc3C(=O)c3ccc(F)cc3)cc2)S1 [Compound A-106] | 6.70 |
| CC(C)Cc1cccc(-c2ccccc2C(C)C)c1O[C@@H]1C[C@@H](CNC(=O)c2ccc(/C=C3\SC(=O)NC3=O)cc2)N(C(=O)c2ccccc2C(=O)c2ccc(F)cc2)C1 [Compound A-126] | 8.26 |
| O=C1NC(=O)/C(=C/c2ccc(C(=O)NC[C@@H]3C[C@@H](Oc4ccccc4-c4ccc(-c5ccccc5)cc4)CN3C(=O)c3ccccc3C(=O)c3ccc(F)cc3)cc2)S1 [Compound A-113] | 6.92 |
| O=C1NC(=S)S/C1=C\c1ccc(CCC[C@@H]2C[C@@H](OCc3ccccc3-c3ccccc3)CN2C(=O)c2ccccc2C(=O)c2ccc(F)cc2)cc1 [Compound E-10] | 6.10 |
| CC(C)Cc1cccc(-c2cccc3ccccc23)c1O[C@@H]1C[C@@H](CNC(=O)c2ccc(/C=C3\SC(=O)NC3=O)cc2)N(C(=O)c2ccccc2C(=O)c2ccc(F)cc2)C1 [Compound A-125] | 8.18 |
| O=C1NC(=S)S/C1=C\C1CCN(C(=O)[C@@H]2C[C@@H](SCc3ccccc3-c3ccccc3)CN2C(=O)c2ccccc2C(=O)c2ccc(F)cc2)CC1 [Compound J-6] | 4.89 |
| CC(C)CN(C(c1ccccc1)c1ccccc1)[C@@H]1C[C@@H](CNC(=O)/C=C/c2ccc(/C=C3\SC(=O)NC3=O)cc2)N(C(=O)c2ccccc2C(=O)c2ccc(F)cc2)C1 [Compound M-20] | 8.19 |
| CCN(Cc1ccccc1-c1ccccc1)[C@@H]1C[C@@H](C(=O)Nc2ccc(/C=C3\SC(=O)NC3=O)cc2)N(C(=O)c2ccccc2C(=O)c2ccc(F)cc2)C1 [Compound N-4] | 7.16 |
| O=C1NC(=S)S/C1=C\c1ccc(/C=C/C[C@@H]2C[C@@H](OCc3ccccc3-c3ccccc3)CN2C(=O)c2ccccc2C(=O)c2ccc(F)cc2)cc1 [Compound E-13] | 7.11 |
| O=C(COc1ccc(/C=C2\SC(=O)NC2=O)cc1)NC[C@@H]1C[C@@H](OCc2ccccc2-c2ccccc2)CN1C(=O)c1ccccc1C(=O)c1ccc(F)cc1 [Compound A-50] | 6.17 |
| CC(C)CN(C(c1ccccc1)c1ccccc1)[C@@H]1C[C@@H](CNC(=O)c2ccc(/C=C3\SC(=O)NC3=O)cc2)N(C(=O)c2ccccc2C(=O)c2ccc(F)cc2)C1 [Compound M-13] | 7.89 |
| O=C1NC(=O)/C(=C/c2ccc(/C=C\[C@@H]3C[C@@H](OCc4ccccc4-c4ccccc4)CN3C(=O)c3ccccc3C(=O)c3ccc(F)cc3)s2)S1 [Compound E-6] | 5.82 |
| CN(C(=O)[C@@H]1C[C@@H](OCc2ccccc2-c2ccccc2)CN1C(=O)c1ccccc1C(=O)c1ccc(F)cc1)c1ccc(/C=C2\SC(=O)NC2=O)cc1 [Compound G-10] | 5.62 |
| O=C1NC(=S)SC1=C[C@@H]1C[C@@H](OCc2ccccc2-c2ccccc2)CN1C(=O)c1ccccc1C(=O)c1ccc(F)cc1 [Compound H-1] | 5.00 |
